In PMC10046377, “Inhibitors of the Oncogenic PA2G4-MYCN Protein-Protein Interface” (Cancers, 2023):

How the values were obtained:
[1] = tested on: normal human myofibroblasts; experiment: Toxicity for normal human myofibroblasts relative to WS6; format: cell-based
Description: Cell viability was determined by the Alamar Blue assay (75 mg resazurin, 12.5 mg methylene blue, 164.5 mg potassium hexacyanoferrate (III), 211 mg potassium hexacyanoferrate (II) trihydrate in 500 mL of phosphate buffered saline). After 6 h incubation with Alamar Blue, the change of fluorescence was measured by Victor 3 multilabel Plate Reader (Perkin Elmer Australia, Melburne, Australia) at an excitation wavelength of 560 nm and an emission wavelength of 590 nm.
We have shown that the PA2G4 protein increased the half-life of the oncoprotein MYCN through direct binding, and competitive chemical inhibition of this bond by WS6 reduced tumorigenicity both in vitro and in vivo [11]. […] Here, we explored the structure–activity relationship (SAR) of WS6 analogue compounds with the aim to increase efficacy and reduce toxicity. […] The in vitro cytotoxicity of these 14 compounds were measured by cell viability assays using Alamar Blue in MYCN amplified human neuroblastoma (SK-N-BE(2)-C and Kelly) cell lines compared to non-malignant (WI-38, MRC-5) myofibroblast cell lines (Figure 1B,C and Supplementary Figure S1A).

SK-N-BE(2)-C cells = experiment: Label-free quantitative LC/MS proteomics of treated SK-N-BE(2)-C cells; format: cell-based, human; details: 72 h, versus DMSO, LFQ LC/MS
Description: SK-N-BE(2)-C cells were incubated with #5333 or #5338 at IC50 concentration of the compound for 72 h. Cells were harvested and the pellets were lysed with RIPA buffer containing protease inhibitors (Sigma-Aldrich, St. Louis, MO, USA). Cell lysates were sent for LFQ/LC/MS analysis at the Bioanalytical Mass Spectrometry Facility, UNSW Sydney. […] Differential protein expression analysis was performed using the DEP (v1.14.0) package in R(v4.1.1). Variance stabilising transformation (vsn) method was used to normalise the protein expression data. Threshold of p-value < 0.05 and log2 fold-change value > |0.6| was used as a cut off to identify differentially expressed proteins. Functional enrichment analysis was performed using DAVID (v 6.8).
To further understand the mechanism of action and off target effects of the WS6 analogues, we used label-free quantitative mass spectrometry of differential proteome expression in response to drug treatment. […] A total of 4255 unique proteins were captured across the three proteomes, of which 258 proteins were differentially expressed after treatment with #5333, and 1371 proteins treated with #5338, when compared to DMSO-treated cells (Figure 4A,B and Supplementary Figure S4A).

PA2G4 protein = target: T1, PA2G4 protein (Homo sapiens, UniProt Q9UQ80); experiment: Differential scanning fluorimetry of PA2G4; format: binding; set-up: made in house; host or cells: BL21 (DE3) E. coli; details: relative to DMSO control
T1 sequence (Q9UQ80 1-394): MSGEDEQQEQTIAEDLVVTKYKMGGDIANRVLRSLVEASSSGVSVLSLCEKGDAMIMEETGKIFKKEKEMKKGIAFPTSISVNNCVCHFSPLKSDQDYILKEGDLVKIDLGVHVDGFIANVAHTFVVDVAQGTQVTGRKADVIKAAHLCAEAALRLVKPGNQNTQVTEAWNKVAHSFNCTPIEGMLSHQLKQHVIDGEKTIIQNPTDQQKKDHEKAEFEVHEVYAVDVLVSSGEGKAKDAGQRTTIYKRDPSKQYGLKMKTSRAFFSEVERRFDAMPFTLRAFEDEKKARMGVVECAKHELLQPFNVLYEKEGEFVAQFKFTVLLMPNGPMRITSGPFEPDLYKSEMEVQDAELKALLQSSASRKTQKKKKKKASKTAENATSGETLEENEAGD
Description: Seeking a further reduction of toxicity and improvements in physicochemical properties, we conducted a second in silico analogue screen using the structure of #3567. A further 33 compounds were purchased and assayed (Supplementary Figure S1C).

SMILES | fold lower toxicity for normal human myofibroblasts compared to WS6 [1] [fold] | GATA2 protein fold change (SK-N-BE(2)-C cells) | melting temperature of PA2G4 (DSF) (PA2G4 protein)
Cc1cccc(Oc2cc(N3CCC(C(=O)N[C@@H](C)CCc4ccccc4)CC3)ncn2)c1C [#5338] | 70 | −5.5 | increased the melting temperature
Cc1cccc(Oc2cc(N3CCC(C(=O)NCc4cccc(Br)c4)CC3)ncn2)c1C [#5333] | 70 | −4.2 | increased the melting temperature
